# Test results taken from US20230129438A1, “IMMUNOMODULATING IMINE-OXAZOLINE AZALIDES” (Zoetis Services LLC, priority 2020, published 2023).
# Marks after values point to notes of the source that are not given here.
# How the values were obtained:
# [1] = tested on: M. haemolytica; assay: In-vitro MIC model, M. haemolytica; format: cell-based
# [2] = tested on: P. multocida; assay: In-vitro MIC model, P. multocida; format: cell-based
# [3] = tested on: E. coli; assay: In-vitro MIC model, E. coli
# [4] = tested on: S. aureus; assay: In-vitro MIC model, S. aureus; conditions: S. aureus ATCC 29213
# [5] = tested on: TNF-α; assay: Bovine whole blood assay, LPS-induced TNF-α; format: cell-based; conditions: LPS 1 μg/mL
# Protocol: (§1) (protected from light) for 30 minutes.
# [6] = tested on: IL-1β; assay: Bovine whole blood assay, IL-1β; format: cell-based; conditions: drug concentration giving overstimulation of IL-1β over LPS (cellular toxicity signal)
# Protocol: as §1
# [7] = tested on: P. multocida 46572; assay: In vivo mouse lung infection challenge model (murine efficacy model); conditions: 20 mg/kg subcutaneous, CD-1 mice, intranasal challenge, to Day 10; approximate (~%), harmonized relative to vehicle and M9
# [8] = tested on: BRD pathogens, M. haemolytica and P. multocida; assay: In-vitro MIC model, BRD pathogen screening panel; format: cell-based; conditions: asterisk = at least one BRD bacterial isolate
# [9] = M. haemolytica 46571, bovine efficacy challenge strain
# [10] = P. multocida 46572, murine efficacy challenge strain
Compound,MIC ([1]; M. haemolytica 12726) [µg/mL],"MIC [1, 9] [µg/mL]",MIC ([1]; M. haemolytica ATCC 33396) [µg/mL],"MIC [2, 10] [µg/mL]",MIC ([2]; P. multocida ATCC 43137) [µg/mL],MIC ([3]; E. coli ATCC 25922) [µg/mL],MIC ([3]; E. coli W3110) [µg/mL],MIC [4] [µg/mL],IC50 [5] [µM],IL-Iβ OS of LPS [6] [µM],% Survival [7] [%],MIC flag on Ex# (Table A) [8],MIC flag on Ex# (Table C) [8]
"CCCNC[C@]1(O)[C@H](C)O[C@@H](O[C@H]2[C@H](C)[C@@H](O[C@@H]3O[C@H](C)C[C@H]4[C@H]3OC(=NCC(F)(F)F)N4C)[C@](C)(O)C[C@@H](C)CN[C@H](C)[C@@H](O)[C@](C)(O)[C@@H](CC)OC(=O)[C@@H]2C)C[C@@]1(C)OC (mixture of isomers) [Example A-4, (E/Z)-(2R,3S,4R,5R,8R,10R,11R,12S,13S,14R)-11-(((3aR,4S,6R,7aS)-1,6-dimethyl-2-((2,2,2-trifluoroethyl)imino)hexahydro-2H-pyrano[4,3-d]oxazol-4-yl)oxy)-2-ethyl-3,4,10-trihydroxy-13-(((2R,4R,5S,6S)-5-hydroxy-4-methoxy-4,6-dimethyl-5-((propylamino)methyl)tetrahydro-2H-pyran-2-yl)oxy)-3,5,8,10,12,14-hexamethyl-1-oxa-6-azacyclopentadecan-15-one]",>64,>64,>64,>64,>64,>64,>64,>64,,,,,
"CCCNC[C@]1(O)[C@H](C)O[C@@H](O[C@H]2[C@H](C)[C@@H](O[C@@H]3O[C@H](C)C[C@H]4[C@H]3OC(=Nc3ccc(OC)cc3)N4C)[C@](C)(O)C[C@@H](C)CN[C@H](C)[C@@H](O)[C@](C)(O)[C@@H](CC)OC(=O)[C@@H]2C)C[C@@]1(C)OC (mixture of isomers) [Example A-9, (E/Z)-(2R,3S,4R,5R,8R,10R,11R,12S,13S,14R)-2-ethyl-3,4,10-trihydroxy-13-(((2R,4R,5S,6S)-5-hydroxy-4-methoxy-4,6-dimethyl-5-((propylamino)methyl)tetrahydro-2H-pyran-2-yl)oxy)-11-(((3aR,4S,6R,7aS)-2-((4-methoxyphenyl)imino)-1,6-dimethylhexahydro-2H-pyrano[4,3-d]oxazol-4-yl)oxy)-3,5,8,10,12,14-hexamethyl-1-oxa-6-azacyclopentadecan-15-one]",>64,>64,>64,>64,>64,>64,>64,>64,< 5,13,64,,
"CCCNC[C@]1(O)[C@H](C)O[C@@H](O[C@H]2[C@H](C)[C@@H](O[C@@H]3O[C@H](C)C[C@H]4[C@H]3OC(=Nc3ccc(OC)nc3)N4C)[C@](C)(O)C[C@@H](C)CN[C@H](C)[C@@H](O)[C@](C)(O)[C@@H](CC)OC(=O)[C@@H]2C)C[C@@]1(C)OC (mixture of isomers) [Example A-17, (E/Z)-(2R,3S,4R,5R,8R,10R,11R,12S,13S,14R)-2-ethyl-3,4,10-trihydroxy-13-(((2R,4R,5S,6S)-5-hydroxy-4-methoxy-4,6-dimethyl-5-((propylamino)methyl)tetrahydro-2H-pyran-2-yl)oxy)-11-(((3aR,4S,6R,7aS)-2-((6-methoxypyridin-3-yl)imino)-1,6-dimethylhexahydro-2H-pyrano[4,3-d]oxazol-4-yl)oxy)-3,5,8,10,12,14-hexamethyl-1-oxa-6-azacyclopentadecan-15-one]",>64,>64,>64,>64,>64,>64,>64,>64,,,37,,
"CCCNC[C@]1(O)[C@H](C)O[C@@H](O[C@H]2[C@H](C)[C@@H](O[C@@H]3O[C@H](C)C[C@H]4[C@H]3OC(=Nc3ccccc3)N4Cc3ccccc3)[C@](C)(O)C[C@@H](C)CN[C@H](C)[C@@H](O)[C@](C)(O)[C@@H](CC)OC(=O)[C@@H]2C)C[C@@]1(C)OC (mixture of isomers) [Example A-33, (E/Z)-(2R,3S,4R,5R,8R,10R,11R,12S,13S,14R)-11-(((3aR,4S,6R,7aS)-1-benzyl-6-methyl-2-(phenylimino)hexahydro-2H-pyrano[4,3-d]oxazol-4-yl)oxy)-2-ethyl-3,4,10-trihydroxy-13-(((2R,4R,5S,6S)-5-hydroxy-4-methoxy-4,6-dimethyl-5-((propylamino)methyl)tetrahydro-2H-pyran-2-yl)oxy)-3,5,8,10,12,14-hexamethyl-1-oxa-6-azacyclopentadecan-15-one]",,,,,,,,,8,2,,A-33* (an MIC ≤ 64 μg/mL for at least one BRD bacterial isolate),
"CC[C@H]1OC(=O)[C@H](C)[C@@H](O[C@H]2C[C@@](C)(OC)[C@](O)(CN3CCOCC3)[C@H](C)O2)[C@H](C)[C@@H](O[C@@H]2O[C@H](C)C[C@H]3[C@H]2OC(=Nc2ccccc2)N3C)[C@](C)(O)C[C@@H](C)CN[C@H](C)[C@@H](O)[C@]1(C)O (mixture of isomers) [Example B-3, (E/Z)-(2R,3S,4R,5R,8R,10R,11R,12S,13S,14R)-11-(((3aR,4S,6R,7aS)-1,6-dimethyl-2-(phenylimino)hexahydro-2H-pyrano[4,3-d]oxazol-4-yl)oxy)-2-ethyl-3,4,10-trihydroxy-13-(((2R,4R,5S,6S)-5-hydroxy-4-methoxy-4,6-dimethyl-5-(morpholinomethyl)tetrahydro-2H-pyran-2-yl)oxy)-3,5,8,10,12,14-hexamethyl-1-oxa-6-azacyclopentadecan-15-one]",>64,>64,>64,>64,>64,>64,>64,>64,,,,,
"CC[C@H]1OC(=O)[C@H](C)[C@@H](O[C@H]2C[C@@](C)(OC)[C@@H](O)[C@H](C)O2)[C@H](C)[C@@H](O[C@@H]2O[C@H](C)C[C@H]3[C@H]2OC(=Nc2ccc(F)cc2)N3C)[C@](C)(O)C[C@@H](C)CN[C@H](C)[C@@H](O)[C@]1(C)O (mixture of isomers) [Example C-1, (E/Z)-(2R,3S,4R,5R,8R,10R,11R,12S,13S,14R)-2-ethyl-11-(((3aR,4S,6R,7aS)-2-((4-fluorophenyl)imino)-1,6-dimethylhexahydro-2H-pyrano[4,3-d]oxazol-4-yl)oxy)-3,4,10-trihydroxy-13-(((2R,4R,5S, 6S)-5-hydroxy-4-methoxy-4,6-dimethyltetrahydro-2H-pyran-2-yl)oxy)-3,5,8,10,12,14-hexamethyl-1-oxa-6-azacyclopentadecan-15-one]",,,,,,,,,,,,,C-1* (MIC ≤ 64 μg/mL for at least one BRD bacterial isolate)
"CC[C@H]1OC(=O)[C@H](C)[C@@H](O[C@H]2C[C@@](C)(OC)[C@@H](O)[C@H](C)O2)[C@H](C)[C@@H](O[C@@H]2O[C@H](C)C[C@H]3[C@H]2OC(=Nc2ccc(OC)cc2)N3C)[C@](C)(O)C[C@@H](C)CN[C@H](C)[C@@H](O)[C@]1(C)O (mixture of isomers) [Example C-3, (E/Z)-(2R,3S,4R,5R,8R,10R,11R,12S,13S,14R)-2-ethyl-3,4,10-trihydroxy-13-(((2R,4R,5S,6S)-5-hydroxy-4-methoxy-4,6-dimethyltetrahydro-2H-pyran-2-yl)oxy)-11-(((3aR,4S,6R,7aS)-2-((4-methoxyphenyl)imino)-1,6-dimethylhexahydro-2H-pyrano[4,3-d]oxazol-4-yl)oxy)-3,5,8,10,12,14-hexamethyl-1-oxa-6-azacyclopentadecan-15-one]",,,,,,,,,,,,,C-3* (MIC ≤ 64 μg/mL for at least one BRD bacterial isolate)
"CC[C@H]1OC(=O)[C@H](C)[C@@H](O[C@H]2C[C@@](C)(OC)[C@@H](O)[C@H](C)O2)[C@H](C)[C@@H](O[C@@H]2O[C@H](C)C[C@H]3[C@H]2OC(=Nc2ccccc2)N3C)[C@](C)(O)C[C@@H](C)CN[C@H](C)[C@@H](O)[C@]1(C)O (mixture of isomers) [Example C-4, (E/Z)-(2R,3S,4R,5R,8R,10R,11R,12S,13S,14R)-11-(((3aR,4S,6R,7aS)-1,6-dimethyl-2-(phenylimino)hexahydro-2H-pyrano[4,3-d]oxazol-4-yl)oxy)-2-ethyl-3,4,10-trihydroxy-13-(((2R,4R,5S,6S)-5-hydroxy-4-methoxy-4,6-dimethyltetrahydro-2H-pyran-2-yl)oxy)-3,5,8,10,12,14-hexamethyl-1-oxa-6-azacyclopentadecan-15-one]",,,,,,,,,,,,,C-4* (MIC ≤ 64 μg/mL for at least one BRD bacterial isolate)
"(E/Z)-(2R,3S,4R,5R,8R,10R,11R,12S,13S,14R)-2-ethyl-3,4,10-trihydroxy-13-(((2R,4R,5S,6S)-5-hydroxy-4-methoxy-4,6-dimethyltetrahydro-2H-pyran-2-yl)oxy)-11-(((3aR,4S,6R,7aS)-2-((6-methoxypyridin-3-yl)imino)-1,6-dimethylhexahydro-2H-pyrano[4,3-d]oxazol-4-yl)oxy)-3,5,8,10,12,14-hexamethyl-1-oxa-6-azacyclopentadecan-15-one [Example C-2]",,,,,,,,,,,,,C-2* (MIC ≤ 64 μg/mL for at least one BRD bacterial isolate)
